The results in this text go back to US20140249143A1, “Compounds And Methods For Enhancing Innate Immune Responses” (GlaxoSmithKline LLC, priority 2011, published 2014).

Format in all cases: cell-based
Assay [1] has as its system HCV genotype 1b subgenomic replicon. The assay can be described thus: Anti-Hepatitis C replicon assay, genotype 1b (luciferase). The settings on record: Hepatitis C virus; luciferase activity measured 48 hours later; read-out: HCV Genotype 1B Replicon pEC50 (converted). The protocol: (§1) Compounds were assayed for activity against HCV using the genotype 1a and 1b subgenomic replicon model systems. Stable cell lines bearing the genotype 1a and 1b replicons were used for screening of compounds. Both replicons are bicistonic and contain the firefly luciferase gene. The ET cell line is stably transfected with RNA transcripts harboring a I389luc-ubi-neo/NS3-3′/ET replicon with firefly luciferase-ubiquitin-neomycin phosphotransferase fusion protein and EMCV-IRES driven NS3-5B polyprotein containing the cell culture adaptive mutations (E1202G; T1280I; K1846T) (Krieger at al, 2001 and unpublished). The genotype 1a replicon is a stable cell line licensed from Apath LLC, modified to contain the firefly luciferase gene. The cells were grown in DMEM, supplemented with 10% fetal calf serum, 2 mM Glutamine, Penicillin (100 IU/mL)/Streptomycin (100 μg/mL), 1× nonessential amino acids, and 250-500 μg/mL G418 (“Geneticin”). They were all available through Life Technologies (Bethesda, Md.). The cells were plated at 0.5×10^4 cells/well in 384 well plates containing compounds. The final concentration of compounds ranged between 0.03 pM to 50 μm and the final DMSO concentration of 0.5-1%.
(§2) Luciferase activity was measured 48 hours later by adding a Steady glo (Promega, Madison, Wis.). Percent inhibition of replication data was plotted relative to no compound control. Under the same condition, cytotoxicity of the compounds was determined using cell titer glo (Promega, Madison, Wis.). IC50s were determined from a 10 point dose response curve using 3-4-fold serial dilution for each compound, which spans a concentration range>1000 fold. BioAssay determines the level of inhibition for each compound by normalizing cross-talk corrected plate values against the negative (low or background, cells with no compound present) and positive (high DMSO, no cells) controls to determine Percent Inhibition:
(§3) These normalized values are exported to IC50 where they are plotted against the molar compound concentrations using the standard four parameter logistic equation: […]

The test system of assay [2] is HCV genotype 1a subgenomic replicon. In words: Anti-Hepatitis C replicon assay, genotype 1a (luciferase). Particulars: Hepatitis C virus; luciferase activity measured 48 hours later; read-out: HCV Genotype 1A Replicon pEC50 (converted). The protocol: as §1, §2, §3
For assay [3], the system named is ISG56 (Interferon-Stimulated Gene 56) promoter ISRE. In words: ISG56 luciferase reporter assay in HEK 293 cells. The settings on record: Homo sapiens, HEK293; HEK 293 reporter, 24 hours; 100% = small molecule control test compound; read-out: ISG56 (Average Max Response) %. How it is done: Compounds of the present invention were tested against a HEK (Human Embryonic Kidney) 293 cell line that was stably transfected with a firefly luciferase reporter gene under the control of the ISG56 (Interferon-Stimulated Gene 56) promoter ISRE (Interferon-Stimulated Response Element). While the ISRE is in the opposite orientation of the wild type promoter, literature^1 cites that the response elements are pallindromic and function properly in either orientation. ^1Reich, N., Evans, B., Levy, D., Fahey, D., Knight, E., Damell, J. E. (1987) Interferon-induced transcription of a gene encoding a 15-kDa protein depends on an upstream enhancer element. See, Proc. Natl. Acad. Sci. 84, (6394-6398).
In preparation for the assay, test compounds were serially diluted 3-fold in DMSO from a typical top concentration of 5 mM and plated at 0.2 μL in a 384-well, polystyrene, tissue culture treated plate with lid (Greiner Bio-One North America, Inc., Monroe, N.C.) to generate 11-point dose response curves in the assay. Low control wells (0% response) contained 0.2 μL of DMSO alone, and high control wells (100% response) contained 0.2 μL of a small molecule control test compound.
Frozen stocks of the transfected HEK 293 cells were washed and recovered in DMEM I Ham's F-12 media (Invitrogen Corporation, Carlsbad, Calif.) supplemented with 10% v/v qualified Australian fetal bovine serum (FBS) (Invitrogen Corporation, Carlsbad, Calif.), 1× GlutaMAX™ (Invitrogen Corporation, Carlsbad, Calif.), 1×MEM non-essential amino acids (NEAA) (Invitrogen Corporation, Carlsbad, Calif.) and 500 μg/ml Geneticin® (Invitrogen Corporation, Carlsbad, Calif.). The cells were diluted to 500,000 cells/mL in the supplemented DMEM/Ham's F-12 media, and 20 μL of the cell suspension were added to each well of the previously prepared 384-well compound plate, resulting in 10,000 cells/well. The plate, with lid, were placed in a 37° C., 5% CO2 humidified incubator for 24 hours.
Following incubation, the plates were removed and placed on the bench top without lids to equilibrate to room temperature for 30 minutes. Steady-Glo® (Promega Corporation, Madison, Wis.) was prepared according to the manufacturer's instructions, and 10 μL were added to each plate well. After a twenty minute incubation at room temperature, luminescence was read on a ViewLux™ (PerkinElmer Inc., Waltham, Mass.).
The data for dose responses were plotted as % activation versus compound concentration following normalization using the formula 100*((U−C1)/(C2−C1)), where U was the unknown value, C1 was the average of the low (0% response) control wells and C2 was the average of the high (100% response) control wells. Curve fitting was performed with the equation y=A+((B−A)/(1+(10^x/10^C)^D)), where A was the minimum response, B was the maximum response, C was the log(EC50) and D was the Hill slope. The results for each test compound were recorded as pEC50 values (—C in the above equation) and as max response values at a given concentration.

For `Cc1cc(C)c2ccc3nc(-c4nnco4)cn3c2n1` [Compound 26, 2-{2,4-dimethylimidazo[1,2-a]1,8-naphthyridin-8-yl}-1,3,4-oxadiazole], the values for the EC50 in assay [1] and in assay [2] were 5.01 µM and 6.31 µM, respectively. In assay [3], the Emax was determined as 8%.
In the case of `FC(F)Oc1cc(C(F)(F)F)c2ccc3nc(-c4nnco4)cn3c2n1` [Compound 20, 2-[2-(difluoromethoxy)-4-(trifluoromethyl)imidazo[1,2-a]1,8-naphthyridin-8-yl]-1,3,4-oxadiazole], the EC50 in assay [1] was 1.58 µM; in assay [2], 1 µM. Besides, in assay [3], the Emax is 13.5%.
Turning to `FC(F)(F)c1cc(C(F)(F)F)c2ccc3nc(-c4cnco4)cn3c2n1` [Compound 4, 5-[2,4-bis(trifluoromethyl)imidazo[1,2-a]1,8-naphthyridin-8-yl]-1,3-oxazole], the EC50 in assay [1] was 0.398 µM; in assay [2], 0.126 µM. Also, the Emax in assay [3] was 178%.
With `CC(C)c1cc(C(C)C)c2ccc3nc(-c4nnco4)cn3c2n1` [Compound 30, 2-[2,4-bis(propan-2-yl)imidazo[1,2-a]1,8-naphthyridin-8-yl]-1,3,4-oxadiazole], the values for the EC50 in assay [1] and in assay [2] were 1 µM and 0.316 µM, respectively.
Consider `FC(F)(F)c1cc(-c2ccsc2)nc2c1ccc1nc(-c3nnco3)cn12` [Compound 6, 2-[2-(thiophen-3-yl)-4-(trifluoromethyl)imidazo[1,2-a]1,8-naphthyridin-8-yl]-1,3,4-oxadiazole], for which the EC50 in assay [1] is 0.501 µM; in assay [2], 0.2 µM. In assay [3], the Emax came to 7.75%.
As to `FC(F)(F)c1cc(C(F)(F)F)c2ccc3cc(-c4nnco4)n(Cc4ccccc4)c3c2n1` [Compound 14, 2-[1-benzyl-6,8-bis(trifluoromethyl)-1H-pyrrolo[3,2-h]quinolin-2-yl]-1,3,4-oxadiazole], the EC50 was 1 µM in assay [1] and 7.94 µM in assay [2]. Further, in assay [3], the Emax turned out to be 10%.
For `FC(F)(F)c1cc(-c2cccnc2)nc2c1ccc1nc(-c3nnco3)cn12` [Compound 19, 3-[8-(1,3,4-oxadiazol-2-yl)-4-(trifluoromethyl)imidazo[1,2-a]1,8-naphthyridin-2-yl]pyridine], the EC50 in assay [1] was 1.58 µM; in assay [2] it was 12.6 µM. Further, the Emax in assay [3] came out at 9%.
In the case of `Cn1c(-c2nnco2)cc2ccc3c(C(F)(F)F)cc(C(F)(F)F)nc3c21` [Compound 16, 2-[1-methyl-6,8-bis(trifluoromethyl)-1H-pyrrolo[3,2-h]quinolin-2-yl]-1,3,4-oxadiazole], the EC50 is 1 µM in assay [1] and 0.251 µM in assay [2]. The Emax in assay [3] amounted to 35.5%.
For `Cc1c(-c2nnco2)nc2ccc3c(C(F)(F)F)cc(C(F)(F)F)nc3n12` [Compound 9, 2-[9-methyl-2,4-bis(trifluoromethyl)imidazo[1,2-a]1,8-naphthyridin-8-yl]-1,3,4-oxadiazole], the EC50 is 0.794 µM in assay [1] and 0.158 µM in assay [2]. Moreover, the Emax in assay [3] is 262%.
For `CC(=O)n1c(-c2nnco2)cc2ccc3c(C(F)(F)F)cc(C(F)(F)F)nc3c21` [Compound 22, 1-[2-(1,3,4-oxadiazol-2-yl)-6,8-bis(trifluoromethyl)-1H-pyrrolo[3,2-h]quinolin-1-yl]ethan-1-one], in that order: 2 µM, 0.501 µM and 60.5%.
Turning to `O=C(C1CCC1)n1c(-c2nnco2)cc2ccc3c(C(F)(F)F)cc(C(F)(F)F)nc3c21` [Compound 21, 2-[1-cyclobutanecarbonyl-6,8-bis(trifluoromethyl)-1H-pyrrolo[3,2-h]quinolin-2-yl]-1,3,4-oxadiazole], the EC50 in assay [1] is 2 µM; in assay [2], 0.631 µM. In addition, the Emax in assay [3] worked out at 70%.
Consider `FC(F)(F)c1cc(C(F)(F)F)c2ccc3nc(-c4nnco4)c(Cl)n3c2n1` [Compound 18, 2-[9-chloro-2,4-bis(trifluoromethyl)imidazo[1,2-a]1,8-naphthyridin-8-yl]-1,3,4-oxadiazole], for which the EC50 was 1.58 µM in assay [1] and 0.251 µM in assay [2]. Moreover, the Emax in assay [3] was 27%.
The corresponding values for `CC(C)c1cc(Cl)c2ccc3nc(-c4nnco4)cn3c2n1` [Compound 23, 2-[4-chloro-2-(propan-2-yl)imidazo[1,2-a]1,8-naphthyridin-8-yl]-1,3,4-oxadiazole] are 3.16 µM, 1.26 µM and 110%.
`FC(F)(F)c1cc(C(F)(F)F)c2ccc3nc(-c4ncco4)cn3c2n1` [Compound 27, 2-[2,4-bis(trifluoromethyl)imidazo[1,2-a]1,8-naphthyridin-8-yl]-1,3-oxazole]: the figures for the EC50 in assay [1] and in assay [2] were 6.31 µM and 2.51 µM, respectively. For the same compound, the Emax in assay [3] was 29%.
Consider `FC(F)(F)c1cc(C(F)(F)F)c2ccc3[nH]c(-c4nnco4)cc3c2n1` [Compound 8, 2-[2,4-bis(trifluoromethyl)-7H-pyrrolo[2,3-h]quinolin-8-yl]-1,3,4-oxadiazole], for which the EC50 in assay [1] and in assay [2] was 0.631 µM throughout. Further, in assay [3], the Emax came to 2.5%.
Regarding `FC(F)(F)c1cc(C2CC2)nc2c1ccc1nc(-c3nnco3)cn12` [Compound 5, 2[2-cyclopropyl-4-(trifluoromethyl)imidazo[1,2-a]1,8-naphthyridin-8-yl]-1,3,4-oxadiazole], the results for the EC50 in assay [1] and in assay [2] were 0.398 µM and 0.1 µM, respectively. For the same compound, the Emax in assay [3] stood at 151%.
Turning to `FC(F)(F)c1cc(C(F)(F)F)c2ccc3cc(-c4nnco4)[nH]c3c2n1` [Compound 15, 2-[6,8-bis(trifluoromethyl)-1H-pyrrolo[3,2-h]quinolin-2-yl]-1,3,4-oxadiazole], the values for the EC50 in assay [1] and in assay [2] were 1 µM and 0.398 µM, respectively. Besides, the Emax in assay [3] amounted to 63.5%.
For the compound `CC(C)c1cc(-c2ccccc2)c2ccc3nc(-c4nnco4)cn3c2n1` [Compound 31, 2-[4-phenyl-2-(propan-2-yl)imidazo[1,2-a]1,8-naphthyridin-8-yl]-1,3,4-oxadiazole], the EC50 in assay [1] is 1.26 µM; in assay [2] it was 0.398 µM.
Take `CCc1cc(C(F)(F)F)c2ccc3nc(-c4nnco4)cn3c2n1` [Compound 13, 2-[2-ethyl-4-(trifluoromethyl)imidazo[1,2-a]1,8-naphthyridin-8-yl]-1,3,4-oxadiazole]: the EC50 is 1 µM in assay [1] and 0.398 µM in assay [2]. Besides, the Emax in assay [3] was determined as 346%.
For `Cc1cc(C(F)(F)F)c2ccc3nc(-c4nnco4)cn3c2n1` [Compound 7, 2-[2-methyl-4-(trifluoromethyl)imidazo[1,2-a]1,8-naphthyridin-8-yl]-1,3,4-oxadiazole], the EC50 is 0.631 µM in assay [1] and 1.26 µM in assay [2].
